Reference: PubChem BioAssay AID330 (DTP/NCI, 2004)
Values joined by “and” are separate entries in the source; they are usually repeats but may differ in a detail not shown here. Equal entries are not always repeated. Toxic doses and inconclusive results are not listed. Peptide text beside a SMILES is read from it. * marks the point of attachment. Cbz = O=C(OCc1ccccc1)*

Test system: P388 leukemia ip, CD2F1 mice, survival T/C
Assay: NCI In Vivo Anticancer Drug Screen. Data for tumor model P388 Leukemia (intraperitoneal) in CD2F1 (CDF1) mice
Settings: endpoint: median survival time, higher = longer survival
How it was run: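 Mice carrying the transplanted tumor received test compound or vehicle. Survival was recorded in each group, and the value is the treated-group measurement divided by that of the vehicle-treated control group.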

[1] = dose: 60.0 mg/kg/injection, schedule: Q01DX005 (ip), vehicle: Klucel (hydroxypropylcellulose) (HPC)
[2] = dose: 120.0 mg/kg/injection, schedule: Q01DX005 (ip), vehicle: Klucel (hydroxypropylcellulose) (HPC)
[3] = dose: 240.0 mg/kg/injection, schedule: Q01DX005 (ip), vehicle: Klucel (hydroxypropylcellulose) (HPC)
[4] = dose: 50.0 mg/kg/injection, schedule: Q01DX005 (ip), vehicle: Klucel (hydroxypropylcellulose) (HPC)
[5] = dose: 100.0 mg/kg/injection, schedule: Q01DX005 (ip), vehicle: Klucel (hydroxypropylcellulose) (HPC)
[6] = dose: 200.0 mg/kg/injection, schedule: Q01DX005 (ip), vehicle: Klucel (hydroxypropylcellulose) (HPC)
[7] = dose: 50.0 mg/kg/injection, schedule: Q01DX009 (ip), vehicle: saline with Tween-80
[8] = dose: 50.0 mg/kg/injection, schedule: Q01DX009 (ip), vehicle: saline
[9] = dose: 100.0 mg/kg/injection, schedule: Q01DX009 (ip), vehicle: saline
[10] = dose: 200.0 mg/kg/injection, schedule: Q01DX009 (ip), vehicle: saline with Tween-80
[11] = dose: 200.0 mg/kg/injection, schedule: Q01DX009 (ip), vehicle: saline
[12] = dose: 50.0 mg/kg/injection, schedule: Q01DX005 (ip), vehicle: saline with Tween-80
[13] = dose: 100.0 mg/kg/injection, schedule: Q01DX005 (ip), vehicle: saline with Tween-80
[14] = dose: 200.0 mg/kg/injection, schedule: Q01DX005 (ip), vehicle: saline with Tween-80

CN1CCN(CN2C(=O)NC(c3ccccc3)(c3ccccc3)C2=O)CC1
T/C [1]: 90 % of control
T/C [2]: 107 % of control
T/C [3]: 98 % of control

CCOC(=O)C(Cc1c[nH]c2ccccc12)NC(=O)C(Cc1ccccc1)NC(=O)C(Cc1cnc[nH]1)NC(=O)OCc1ccccc1 (stereo not drawn) (Cbz-His-Phe-Trp-OEt; configuration not given here)
T/C [4]: 93 % of control
T/C [5]: 93 % of control
T/C [6]: 89 % of control

O=[N+]([O-])c1cccnc1Sc1ccnc(Sc2ncccc2[N+](=O)[O-])n1
T/C [7]: 89 % of control
T/C [8]: 97 % of control
T/C [9]: 100 % of control and 96 % of control
T/C [10]: 89 % of control
T/C [11]: 89 % of control and 91 % of control

CC1(C)OC(=O)C(=Cc2ccc([N+](=O)[O-])s2)C(=O)O1
T/C [7]: 103 % of control and 110 % of control
T/C (dose: 100.0 mg/kg/injection, schedule: Q01DX009 (ip), vehicle: saline with Tween-80): 109 % of control and 122 % of control
T/C [10]: 111 % of control and 124 % of control

COC(=O)C(CCCCNC(=O)OCc1ccccc1)NC(=O)C(Cc1ccccc1)NC(=O)OC(C)(C)C (stereo not given)
T/C [4]: 99 % of control
T/C [5]: 97 % of control
T/C [6]: 99 % of control

C=CCSC(=S)Nc1nc2ccc([N+](=O)[O-])cc2s1
T/C (dose: 6.25 mg/kg/injection, schedule: Q01DX009 (ip), vehicle: Klucel (hydroxypropylcellulose) (HPC)): 106 % of control
T/C (dose: 12.5 mg/kg/injection, schedule: Q01DX009 (ip), vehicle: Klucel (hydroxypropylcellulose) (HPC)): 109 % of control
T/C (dose: 25.0 mg/kg/injection, schedule: Q01DX009 (ip), vehicle: Klucel (hydroxypropylcellulose) (HPC)): 103 % of control

Nc1ccccc1SCc1csc(-c2ccc(Cl)cc2)n1
T/C [8]: 103 % of control
T/C [9]: 114 % of control
T/C [11]: 109 % of control

O=C1C2(CCCC13N=NCC3c1ccccc1)N=NCC2c1ccccc1 (stereo not given)
T/C [1]: 93 % of control
T/C [2]: 88 % of control
T/C [3]: 93 % of control

Cc1cc2cc3c(=O)n(C)c(=O)nc-3n(CC(O)C(O)C(O)CO)c2cc1C (stereo not given)
T/C (dose: 15.0 mg/kg/injection, schedule: Q01DX009 (ip), vehicle: saline with Tween-80): 98 % of control
T/C (dose: 30.0 mg/kg/injection, schedule: Q01DX009 (ip), vehicle: saline with Tween-80): 98 % of control
T/C (dose: 60.0 mg/kg/injection, schedule: Q01DX009 (ip), vehicle: saline with Tween-80): 113 % of control

Cn1cnc([N+](=O)[O-])c1[Se]c1nc(N)nc2nc[nH]c12
T/C (dose: 3.12 mg/kg/injection, schedule: Q01DX009 (ip), vehicle: dextrose): 117 % of control
T/C (dose: 3.12 mg/kg/injection, schedule: Q01DX009 (ip), vehicle: water): 104 % of control
T/C (dose: 6.25 mg/kg/injection, schedule: Q01DX009 (ip), vehicle: dextrose): 112 % of control
T/C (dose: 6.25 mg/kg/injection, schedule: Q01DX009 (ip), vehicle: water): 116 % of control
T/C (dose: 25.0 mg/kg/injection, schedule: Q01DX009 (ip), vehicle: dextrose): 161 % of control
T/C (dose: 25.0 mg/kg/injection, schedule: Q01DX009 (ip), vehicle: water): 106 % of control
T/C (dose: 50.0 mg/kg/injection, schedule: Q01DX009 (ip), vehicle: dextrose): 123 % of control
T/C (dose: 50.0 mg/kg/injection, schedule: Q01DX009 (ip), vehicle: water): 116 % of control

CCN(CC)CCOc1cccc2c1C(=O)c1ccccc1C2=O
T/C [8]: 105 % of control and 98 % of control
T/C [9]: 106 % of control

Cn1c(=O)c2cc3c(cc2c2ccccc21)OCO3
T/C (dose: 25.0 mg/kg/injection, schedule: Q01DX009 (ip), vehicle: other): 90 % of control
T/C (dose: 50.0 mg/kg/injection, schedule: Q01DX009 (ip), vehicle: other): 93 % of control
T/C (dose: 100.0 mg/kg/injection, schedule: Q01DX009 (ip), vehicle: other): 90 % of control
T/C (dose: 200.0 mg/kg/injection, schedule: Q01DX009 (ip), vehicle: other): 90 % of control
T/C (dose: 400.0 mg/kg/injection, schedule: Q01DX009 (ip), vehicle: other): 93 % of control

[N-]=[N+]=CC(=O)CCC(=O)C=[N+]=[N-]
T/C (dose: 0.75 mg/kg/injection, schedule: Q01DX009 (ip), vehicle: other): 123 % of control
T/C (dose: 0.78 mg/kg/injection, schedule: Q01DX007 (ip), vehicle: DMSO): 101 % of control
T/C (dose: 1.56 mg/kg/injection, schedule: Q01DX007 (ip), vehicle: DMSO): 117 % of control
T/C (dose: 3.0 mg/kg/injection, schedule: Q01DX009 (ip), vehicle: other): 170 % of control
T/C (dose: 6.0 mg/kg/injection, schedule: Q01DX009 (ip), vehicle: other): 104 % of control
T/C (dose: 6.25 mg/kg/injection, schedule: Q01DX007 (ip), vehicle: DMSO): 158 % of control
T/C (dose: 12.5 mg/kg/injection, schedule: Q01DX007 (ip), vehicle: DMSO): 93 % of control
T/C (dose: 25.0 mg/kg/injection, schedule: Q01DX007 (ip), vehicle: DMSO): 93 % of control

C1=CC2C=CC1C2c1ccccc1 (stereo not given)
T/C [8]: 108 % of control and 86 % of control
T/C [9]: 105 % of control and 111 % of control
T/C [11]: 116 % of control and 98 % of control

NS(=O)(=O)c1ccc(N=NC2Sc3nc4ccccc4n3C2=O)cc1 (stereo not given)
T/C [1]: 94 % of control
T/C [2]: 91 % of control

CCOC(=O)C1CCC(=O)C(CC)=C1C (stereo not given)
T/C [12]: 103 % of control
T/C [13]: 103 % of control
T/C [14]: 107 % of control

Nc1ccc2cc3c(nc2n1)[nH]c1ccccc13
T/C (dose: 1.56 mg/kg/injection, schedule: Q01DX009 (ip), vehicle: saline with Tween-80): 97 % of control
T/C (dose: 3.12 mg/kg/injection, schedule: Q01DX009 (ip), vehicle: saline with Tween-80): 103 % of control
T/C (dose: 6.25 mg/kg/injection, schedule: Q01DX009 (ip), vehicle: saline with Tween-80): 100 % of control
T/C (dose: 12.5 mg/kg/injection, schedule: Q01DX009 (ip), vehicle: saline with Tween-80): 102 % of control
T/C (dose: 25.0 mg/kg/injection, schedule: Q01DX009 (ip), vehicle: saline with Tween-80): 118 % of control

C[CH2][Sn]([CH2]C)([n]1c2ccccc2c2c(C)c3cnccc3c(C)c21)[n]1c2ccccc2c2c(C)c3cnccc3c(C)c21
T/C (dose: 1.56 mg/kg/injection, schedule: Q01DX005 (ip), vehicle: Klucel (hydroxypropylcellulose) (HPC)): 118 % of control
T/C (dose: 6.25 mg/kg/injection, schedule: Q01DX005 (ip), vehicle: Klucel (hydroxypropylcellulose) (HPC)): 155 % of control

c1cnc2c(c1)Oc1nc3ccccc3nc1S2
T/C [12]: 99 % of control
T/C [13]: 98 % of control
T/C [14]: 96 % of control

CC1(C)C(=O)C=C[C@]2(C)[C@H]3CC[C@]4(C)C(=CC[C@H]4c4ccoc4)[C@]3(C)[C@H](O)C[C@@H]12
T/C (dose: 7.81 mg/kg/injection, schedule: Q01DX005 (ip), vehicle: Klucel (hydroxypropylcellulose) (HPC)): 98 % of control
T/C (dose: 15.63 mg/kg/injection, schedule: Q01DX005 (ip), vehicle: Klucel (hydroxypropylcellulose) (HPC)): 98 % of control
T/C (dose: 31.25 mg/kg/injection, schedule: Q01DX005 (ip), vehicle: Klucel (hydroxypropylcellulose) (HPC)): 95 % of control
T/C (dose: 62.5 mg/kg/injection, schedule: Q01DX005 (ip), vehicle: Klucel (hydroxypropylcellulose) (HPC)): 95 % of control
T/C (dose: 125.0 mg/kg/injection, schedule: Q01DX005 (ip), vehicle: Klucel (hydroxypropylcellulose) (HPC)): 93 % of control

CCS(=O)(=O)c1ncnc2nc[nH]c12
T/C [4]: 100 % of control
T/C [5]: 102 % of control
T/C [6]: 100 % of control

O=C1OI(O)c2ccccc21
T/C [1]: 106 % of control
T/C [2]: 106 % of control

CC[CH](C)[Sn](=[O])[CH](C)CC (stereo not given)
T/C (dose: 0.78 mg/kg/injection, schedule: Q01DX009 (ip), vehicle: saline): 97 % of control
T/C (dose: 1.56 mg/kg/injection, schedule: Q01DX009 (ip), vehicle: saline): 105 % of control
T/C (dose: 3.12 mg/kg/injection, schedule: Q01DX009 (ip), vehicle: saline): 113 % of control

CCN(CC)CCCC(C)Nc1nc(-c2ccc(OC)cc2)nc2cc(Cl)ccc12 (stereo not given)
T/C (dose: 50.0 mg/kg/injection, schedule: Q01DX005 (ip), vehicle: saline): 102 % of control
T/C (dose: 100.0 mg/kg/injection, schedule: Q01DX005 (ip), vehicle: saline): 93 % of control

Cc1nn(C(=O)c2ccncc2)c(C)c1N=Nc1ccc([N+](=O)[O-])cc1
T/C (dose: 50.0 mg/kg/injection, schedule: Q01DX009 (ip), vehicle: Klucel (hydroxypropylcellulose) (HPC)): 92 % of control
T/C (dose: 100.0 mg/kg/injection, schedule: Q01DX009 (ip), vehicle: Klucel (hydroxypropylcellulose) (HPC)): 93 % of control

CC1=C(C)CN2CC(C#N)=C(N)C2C1 (stereo not given)
T/C [12]: 107 % of control
T/C [13]: 96 % of control
T/C [14]: 96 % of control
